The record followed here is patent publication US20200231638A1, “STABILIZED ANTI-MICROBIAL PEPTIDES” (priority 2015, published 2020).

Like-named read-outs stand apart in the source and are kept apart here. Bridge positions count the residues as written; N and C are the ends. Square brackets hold non-standard residues; d marks the D form. Peptide text beside a SMILES is read from it. S5 = C=CCCC[C@](C)(N)C(=O)O; Nle = CCCC[C@H](N)C(=O)O

The test system of series [1] is E. coli. The format is cell-based, Escherichia coli. How it is done:
(§1) Antimicrobial Activity Assay:
(§2) The following microbroth dilution protocol was adapted to determine the minimum inhibitory concentration (MIC) of each peptide. First, Mueller-Hinton broth (MHB) was passed through an anion exchange column to remove polyanionic species and generate refined MHB. […] Briefly, bacterial cells was grown overnight in refined MHB at 37° C. and then diluted and allowed to grow again for several hours. Serial dilutions of peptide stocks in water (10 μl) were prepared using clear round-bottom polypropylene 96-well plates. Then 90 μl of bacteria in refined MHB was added to give a final inoculum of 5×10^5 CFU/ml. The plates were then covered with porous tape to reduce evaporation, and incubated for 20-24 hours at 37° C. The MIC is the minimum peptide concentration at which no visible growth was observed.

In series [2] the test system is B. cereus. The format is cell-based, Bacillus cereus. How it is done: as §1, §2
Series [3] has as its system S. aureus. The format is cell-based, Staphylococcus aureus. How it is done:
as §1, §2

The test system of series [4] is P. aeruginosa. The format is cell-based, Pseudomonas aeruginosa. How it is done:
as §1, §2

The test system of series [5] is human red blood cells. Format: cell-based. How it is done: FIG. 5 is a series of line graphs depicting the hemolytic activity of magainin II and stapled analogues. Peptides were incubated with 1% (v/v) human red blood cells in phosphate-buffered solution for 1 hour at 37° C. and then the supernatant was isolated and the amount of hemoglobin released was measured at 540 nm. % hemolysis was calculated relative to an untreated control.
Hemolytic Activity Assay:
For the determination of hemolytic activity, human blood samples were centrifuged to isolate red blood cells (RBCs), which are then washed and suspended in phosphate-buffered saline to yield a 1% (v/v) suspension. The suspension was then added to serial dilutions of peptide stocks in water in clear round-bottom polypropylene 96-well plates and the plates were incubated for 1 hour at 37° C. After incubation, the plates were centrifuged and the supernatant was isolated to determine the amount of hemoglobin released using a spectrophotometer (570 nm), according to the equation: % Hemolysis=(Treated Absorbance−Untreated Control Absorbance)/(1% Triton-X100 Treated Absorbance−Untreated Control Absorbance). The minimum hemolytic concentration (MHC) is the peptide concentration at which there is less than 1% hemoglobin release.

`CCCC[C@H](NC(=O)[C@]1(C)CCCC=CCCC[C@](C)(NC(=O)[C@H](C)NC(=O)[C@H](CCCCN)NC(=O)CNC(=O)[C@H](Cc2ccccc2)NC(=O)[C@H](CCCCN)NC(=O)[C@H](CCCCN)NC(=O)[C@H](Cc2c[nH]cn2)NC(=O)[C@H](CO)NC(=O)[C@]2(C)CCCC=CCCC[C@](C)(NC(=O)[C@H](CCCCN)NC(=O)CN)C(=O)N[C@@H](CCCCN)C(=O)N[C@@H](Cc3ccccc3)C(=O)N[C@@H](CC(C)C)C(=O)N2)C(=O)N[C@@H](C(C)C)C(=O)NCC(=O)N[C@@H](CCC(=O)O)C(=O)N1)C(=O)N[C@@H](CC(N)=O)C(=O)N[C@@H](CO)C(N)=O` [Mag(i + 4)2, 15(I2X, A9H)] (H-GK[S5]KFL[S5]SHKKFGKA[S5]VGE[S5][Nle]NS-NH2; staple 3-7, 16-20): the “MIC E. coli” value in series [1] came out at 3.1 µg/mL. Also, the “MIC B. cereus” value in series [2] is 6.2 µg/mL. The “MIC S. aureus” value in series [3] amounted to 12.5 µg/mL. Moreover, the “MIC P. aeruginosa” value in series [4] turned out to be 6.2 µg/mL. Moreover, the “% Hemolysis at 25 μg/ml” value in series [5] was “completely eliminated”; in series [5] (red cells of human, 1 h, 25), 0.6%.
Turning to `CCCC[C@H](NC(=O)[C@]1(C)CCCC=CCCC[C@](C)(NC(=O)[C@H](C)NC(=O)[C@H](CCCCN)NC(=O)CNC(=O)[C@H](Cc2ccccc2)NC(=O)[C@H](CCCCN)NC(=O)[C@H](CCCCN)NC(=O)[C@H](Cc2c[nH]cn2)NC(=O)[C@H](CO)NC(=O)[C@]2(C)CCCC=CCCC[C@](C)(NC(=O)[C@H](CCCCN)NC(=O)CN)C(=O)N[C@@H](CCCCN)C(=O)N[C@@H](Cc3ccccc3)C(=O)N[C@@H](CC(C)C)C(=O)N2)C(=O)N[C@@H](C(C)C)C(=O)N[C@@H](Cc2c[nH]cn2)C(=O)N[C@@H](CCC(=O)O)C(=O)N1)C(=O)N[C@@H](CCC(=O)O)C(=O)N[C@@H](CO)C(N)=O` [Mag(i + 4)2, 15(I2X, A9H, G18H, N21E)] (H-GK[S5]KFL[S5]SHKKFGKA[S5]VHE[S5][Nle]ES-NH2; staple 3-7, 16-20), the “MIC E. coli” value in series [1] worked out at 3.1 µg/mL. Also, the “MIC B. cereus” value in series [2] is 6.2 µg/mL. In addition, the “MIC S. aureus” value in series [3] turned out to be 25 µg/mL. Further, the “MIC P. aeruginosa” value in series [4] is 6.2 µg/mL. Moreover, the “% Hemolysis at 25 μg/ml” value in series [5] (red cells of human, 1 h, 25) is 4.0%.
As for `CCCC[C@H](NC(=O)[C@@H](NC(=O)[C@H](CCC(=O)O)NC(=O)CNC(=O)[C@@H](NC(=O)[C@H](Cc1ccccc1)NC(=O)[C@H](C)NC(=O)[C@H](CCCCN)NC(=O)CNC(=O)[C@H](Cc1ccccc1)NC(=O)[C@H](CCCCN)NC(=O)[C@H](CCCCN)NC(=O)[C@H](C)NC(=O)[C@H](CO)NC(=O)[C@]1(C)CCCC=CCCC[C@](C)(NC(=O)[C@@H](NC(=O)CN)[C@@H](C)CC)C(=O)N[C@@H](CCCCN)C(=O)N[C@@H](Cc2ccccc2)C(=O)N[C@@H](CC(C)C)C(=O)N1)C(C)C)[C@@H](C)CC)C(=O)N[C@@H](CC(N)=O)C(=O)N[C@@H](CO)C(N)=O` [Mag(i + 4)2] (H-GI[S5]KFL[S5]SAKKFGKAFVGEI[Nle]NS-NH2; staple 3-7), in series [1], the “MIC E. coli” value amounted to 3.1 µg/mL. The “MIC B. cereus” value in series [2] is 12.5 µg/mL. Further, the “MIC S. aureus” value in series [3] is 12.5 µg/mL. Besides, the “MIC P. aeruginosa” value in series [4] came to 12.5 µg/mL. Also, the “% Hemolysis at 25 μg/ml” value in series [5] (red cells of human, 1 h, 25) is 19.6%.
For `CCCC[C@H](NC(=O)[C@@H](NC(=O)[C@H](CCC(=O)O)NC(=O)CNC(=O)[C@@H](NC(=O)[C@H](Cc1ccccc1)NC(=O)[C@H](C)NC(=O)[C@H](CCCCN)NC(=O)CNC(=O)[C@H](Cc1ccccc1)NC(=O)[C@H](CCCCN)NC(=O)[C@H](CCCCN)NC(=O)[C@H](C)NC(=O)[C@]1(C)CCCC=CCCC[C@](C)(NC(=O)CNC(=O)[C@@H](NC(=O)CN)[C@@H](C)CC)C(=O)N[C@@H](Cc2ccccc2)C(=O)N[C@@H](CC(C)C)C(=O)N[C@@H](Cc2c[nH]cn2)C(=O)N1)C(C)C)[C@@H](C)CC)C(=O)N[C@@H](CC(N)=O)C(=O)N[C@@H](CO)C(N)=O` [Mag(i + 4)3] (H-GIG[S5]FLH[S5]AKKFGKAFVGEI[Nle]NS-NH2; staple 4-8), in series [1], the “MIC E. coli” value stood at 6.2 µg/mL. The “MIC B. cereus” value in series [2] worked out at 12.5 µg/mL. The “MIC S. aureus” value in series [3] is 6.2 µg/mL. Moreover, the “MIC P. aeruginosa” value in series [4] came out at 25 µg/mL. Moreover, in series [5] (red cells of human, 1 h, 25), the “% Hemolysis at 25 μg/ml” value was found to be 41.6%.
Take `CCCC[C@H](NC(=O)[C@@H](NC(=O)[C@H](CCC(=O)O)NC(=O)CNC(=O)[C@@H](NC(=O)[C@H](Cc1ccccc1)NC(=O)[C@H](C)NC(=O)[C@H](CCCCN)NC(=O)CNC(=O)[C@H](Cc1ccccc1)NC(=O)[C@H](CCCCN)NC(=O)[C@H](CCCCN)NC(=O)[C@]1(C)CCCC=CCCC[C@](C)(NC(=O)[C@H](CCCCN)NC(=O)CNC(=O)[C@@H](NC(=O)CN)[C@@H](C)CC)C(=O)N[C@@H](CC(C)C)C(=O)N[C@@H](Cc2c[nH]cn2)C(=O)N[C@@H](CO)C(=O)N1)C(C)C)[C@@H](C)CC)C(=O)N[C@@H](CC(N)=O)C(=O)N[C@@H](CO)C(N)=O` [Mag(i + 4)4] (H-GIGK[S5]LHS[S5]KKFGKAFVGEI[Nle]NS-NH2; staple 5-9): in series [1], the “MIC E. coli” value came to 3.1 µg/mL. Moreover, in series [2], the “MIC B. cereus” value worked out at 6.2 µg/mL. Moreover, the “MIC S. aureus” value in series [3] stood at 25 µg/mL. Further, the “MIC P. aeruginosa” value in series [4] worked out at 12.5 µg/mL. Further, the “% Hemolysis at 25 μg/ml” value in series [5] (red cells of human, 1 h, 25) was determined as 17.8%.
Taken in the same sequence, the figures for `CCCC[C@H](NC(=O)[C@@H](NC(=O)[C@H](CCC(=O)O)NC(=O)CNC(=O)[C@@H](NC(=O)[C@H](Cc1ccccc1)NC(=O)[C@H](C)NC(=O)[C@H](CCCCN)NC(=O)CNC(=O)[C@H](Cc1ccccc1)NC(=O)[C@H](CCCCN)NC(=O)[C@]1(C)CCCC=CCCC[C@](C)(NC(=O)[C@H](Cc2ccccc2)NC(=O)[C@H](CCCCN)NC(=O)CNC(=O)[C@@H](NC(=O)CN)[C@@H](C)CC)C(=O)N[C@@H](Cc2c[nH]cn2)C(=O)N[C@@H](CO)C(=O)N[C@@H](C)C(=O)N1)C(C)C)[C@@H](C)CC)C(=O)N[C@@H](CC(N)=O)C(=O)N[C@@H](CO)C(N)=O` [Mag(i + 4)5] (H-GIGKF[S5]HSA[S5]KFGKAFVGEI[Nle]NS-NH2; staple 6-10) were 12.5 µg/mL, 12.5 µg/mL, 25 µg/mL, 50 µg/mL and 13.3%.
For the compound `CCCC[C@H](NC(=O)[C@@H](NC(=O)[C@H](CCC(=O)O)NC(=O)CNC(=O)[C@@H](NC(=O)[C@H](Cc1ccccc1)NC(=O)[C@H](C)NC(=O)[C@H](CCCCN)NC(=O)CNC(=O)[C@]1(C)CCCC=CCCC[C@](C)(NC(=O)[C@H](Cc2c[nH]cn2)NC(=O)[C@H](CC(C)C)NC(=O)[C@H](Cc2ccccc2)NC(=O)[C@H](CCCCN)NC(=O)CNC(=O)[C@@H](NC(=O)CN)[C@@H](C)CC)C(=O)N[C@@H](C)C(=O)N[C@@H](CCCCN)C(=O)N[C@@H](CCCCN)C(=O)N1)C(C)C)[C@@H](C)CC)C(=O)N[C@@H](CC(N)=O)C(=O)N[C@@H](CO)C(N)=O` [Mag(i + 4)7] (H-GIGKFLH[S5]AKK[S5]GKAFVGEI[Nle]NS-NH2; staple 8-12), the “MIC E. coli” value in series [1] is 3.1 µg/mL. Besides, the “MIC B. cereus” value in series [2] stood at 6.2 µg/mL. Moreover, the “MIC S. aureus” value in series [3] came to 6.2 µg/mL. Further, in series [4], the “MIC P. aeruginosa” value was found to be 6.2 µg/mL. Also, the “% Hemolysis at 25 μg/ml” value in series [5] (red cells of human, 1 h, 25) was found to be 62.5%.
`CCCC[C@H](NC(=O)[C@@H](NC(=O)[C@H](CCC(=O)O)NC(=O)CNC(=O)[C@@H](NC(=O)[C@H](Cc1ccccc1)NC(=O)[C@H](C)NC(=O)[C@H](CCCCN)NC(=O)[C@]1(C)CCCC=CCCC[C@](C)(NC(=O)[C@H](CO)NC(=O)[C@H](Cc2c[nH]cn2)NC(=O)[C@H](CC(C)C)NC(=O)[C@H](Cc2ccccc2)NC(=O)[C@H](CCCCN)NC(=O)CNC(=O)[C@@H](NC(=O)CN)[C@@H](C)CC)C(=O)N[C@@H](CCCCN)C(=O)N[C@@H](CCCCN)C(=O)N[C@@H](Cc2ccccc2)C(=O)N1)C(C)C)[C@@H](C)CC)C(=O)N[C@@H](CC(N)=O)C(=O)N[C@@H](CO)C(N)=O` [Mag(i + 4)8, GIGKFLHSXKKFXKAFVGEIBNS] (H-GIGKFLHS[S5]KKF[S5]KAFVGEI[Nle]NS-NH2; staple 9-13): the “MIC E. coli” value in series [1] amounted to 3.1 µg/mL. Besides, the “MIC B. cereus” value in series [2] came to 3.1 µg/mL. Further, the “MIC S. aureus” value in series [3] was 12.5 µg/mL. Also, the “MIC P. aeruginosa” value in series [4] turned out to be 3.1 µg/mL. Also, the “hemolytic activity (in words)” value in series [5] is on record as “indiscriminate lytic activity”. The “% Hemolysis at 25 μg/ml” value in series [5] (red cells of human, 1 h, 25) stood at 74.6%.
